Experimental data reported in US20140248291A1, “Modulation of Cellular Migration” (THE UAB RESEARCH FOUNDATION, priority 2011, published 2014).

What was measured:
D54-MG-GFP glioma cells = experiment: Transwell migration assay; assay type: cell-based, human; settings: antagonist 1 μM with BK, 5 h
Method: The day before the experiment was performed, ˜70% confluent dishes of cells were prepared. Transwell migration Fluoroblock cell culture inserts (BD Biosciences, San Jose, Calif.) with 8 μm pores were coated overnight with Vitronectin (BD Biosciences, San Jose, Calif.) at a concentration of 5 μg/ml in PBS. The following day, inserts were blocked with 1% fatty acid-free bovine serum albumin for 1 h. Inserts were then washed two times in PBS, and 400 μl of Migration Assay Buffer (MAB, 0.1% fatty acid-free bovine serum albumin in serum-free media) was added to the bottom of each well. Cells were rinsed once in PBS and were lifted off the dish by the addition of 0.5 mm EGTA. Cells were rinsed twice by centrifugation and resuspended in MAB and counted. Forty thousand cells were plated on the top of each filter and allowed to adhere for 30 min before drug was added. When BK+/−antagonists was added to the filters, it was added only to the bottom of the filter for chemotaxis. For migration assay, D54-EGFP MG cells were allowed to migrate for 5 hours, washed with PBS, fixed with 4% paraformaldehyde 15 minutes at room temperature, washed thrice and counterstained with DAPI for 5 minutes at room temperature. Invasion assay was performed similarly. Matrigel cell cultured inserts (BD Biosciences, San Jose, Calif.) with 8 μm pores were pretreated Vitronectin and blocked as described above. […] The number of nuclei that migrated through pores was counted. All counts per treatment were averaged and SE values were calculated. […]
To investigate the hypothesis that BK promotes glioma migration in vitro, we used Transwell migration assay which conveniently permit examination of cell migration across a membrane barrier with 8 μm pores towards vitronectin, a chemo-attractant extracellular matrix protein. This frequently used assay allows a quantitative study of drug effects with regards to drugs acting as motogens or as chemo-attractants. […]

BK = BK (Homo sapiens, UniProt P30411); settings: cited from earlier work
B2R = settings: NG108-15 cells, n=3; read-out: KI, displacement of [3H]-BK binding; cited from earlier work
B2 receptor = settings: cited from earlier work
[1] = system: BK-induced ventral root depolarizations; settings: rat spinal cord and tail preparation, n=3; cited from earlier work
rat B2R = molecular target: T1, rat B2R (Rattus norvegicus, UniProt P25023); settings: n=3, read-out: IC50, BK-induced [3H]-IP3 formation; cited from earlier work
T1 sequence (P25023 1-396): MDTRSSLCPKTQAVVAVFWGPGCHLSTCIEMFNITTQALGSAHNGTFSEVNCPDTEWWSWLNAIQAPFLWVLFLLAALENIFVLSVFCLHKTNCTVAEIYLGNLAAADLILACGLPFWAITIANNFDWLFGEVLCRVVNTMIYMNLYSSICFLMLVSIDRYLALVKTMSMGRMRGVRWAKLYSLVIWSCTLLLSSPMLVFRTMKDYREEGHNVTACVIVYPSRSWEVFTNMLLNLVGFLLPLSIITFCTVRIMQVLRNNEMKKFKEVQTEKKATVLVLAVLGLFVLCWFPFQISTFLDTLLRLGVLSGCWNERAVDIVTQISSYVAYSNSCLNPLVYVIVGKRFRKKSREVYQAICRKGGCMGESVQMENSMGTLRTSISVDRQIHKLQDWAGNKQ

[2] = in vivo; cited from earlier work

BK, sequence (P30411 whole entry, species assumed): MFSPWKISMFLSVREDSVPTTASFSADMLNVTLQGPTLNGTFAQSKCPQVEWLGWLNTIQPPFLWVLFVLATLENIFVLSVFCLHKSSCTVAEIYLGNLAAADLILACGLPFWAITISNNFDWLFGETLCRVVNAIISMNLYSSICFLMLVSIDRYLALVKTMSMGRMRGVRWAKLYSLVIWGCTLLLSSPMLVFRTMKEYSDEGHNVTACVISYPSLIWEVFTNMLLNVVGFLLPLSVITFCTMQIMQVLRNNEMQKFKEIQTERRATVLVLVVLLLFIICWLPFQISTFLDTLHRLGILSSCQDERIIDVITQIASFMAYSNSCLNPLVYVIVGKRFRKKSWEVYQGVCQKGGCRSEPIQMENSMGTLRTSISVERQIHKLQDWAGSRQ

SMILES: N=C(N)NCCCC(NC(=O)[C@H](N)CCCNC(=N)N)C(=O)N1CCC[C@H]1C(=O)N1C[C@H](O)C[C@H]1C(=O)NCC(=O)N[C@@H](Cc1cccs1)C(=O)N[C@@H](CO)C(=O)N1Cc2ccccc2C[C@@H]1C(=O)N1C2CCCCC2C[C@H]1C(=O)N[C@H](CCCNC(=N)N)C(=O)O (stereo partly drawn) [HOE-140, D-Arg-[Hyp^3, Thi^5, D-Tic^7, Oic^8]bradykinin]
- BK-induced increase in cells migrating through the pores (D54-MG-GFP glioma cells): eliminated
- potency relative to D-Arg-[Hyp^2, Thi^5,8, D-Phe^7]BK (BK): two to three orders of magnitude more potency

SMILES: CN(C)CCN(C)CCNC(=O)[C@@H]1CCCN1S(=O)(=O)c1ccc(NNC(=S)NC(c2ccccc2)c2ccccc2)c([N+](=O)[O-])c1 [Bradyzide]
- BK-induced increase in cells migrating through the pores (D54-MG-GFP glioma cells): eliminated
- Ki (B2R): 0.51 nM
- Schild slope (B2 receptor; 45Ca efflux from NG108-15 cells): 1.05
- pKB, inhibition of B2 receptor-induced 45Ca efflux (B2 receptor; NG108-15 cells, n=5): 8.0±0.16
- IC50 [1]: 1.6 ± 0.05 nM
- IC50 (rat B2R): 11.6 ± 1.4 nM
- oral availability [2]: orally available
